Test results as given in patent publication US9113629B2, “4-amino-6-(4-substituted-phenyl)-picolinates and 6-amino-2-(4-substituted-phenyl)-pyrimidine-4-carboxylates and their use as herbicides” (DOW AGROSCIENCES LLC, priority 2013, dated 2015).

system: Key Broadleaf Weed and Crop Species; assay: Post-emergent Test II herbicidal activity (Table 5); format: in vivo; details: post-emergence, 336 h; ABUTH: velvetleaf (Abutilon theophrasti); 70 g ai/ha; post-emergent; 14 days after application; read-out: Visual Growth Reduction (%) 14 Days After Application ABUTH
In short: (§1)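 Compounds, dissolved in 97:3 acetone/DMSO and diluted into an aqueous carrier containing crop oil concentrate and Triton X-155, are applied over the top of young plants at 187 L/ha. Injury is scored visually at 14 d, 0% meaning no effect and 100% complete kill.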

| Compound | pest or weed control at 70 g/ha [%] |
| --- | --- |
| Nc1cc(-c2ccc(Br)c(F)c2)nc(C(=O)O)c1Cl [Compound 110, 4-Amino-6-(4-bromo-3-fluorophenyl)-3-chloropicolinic acid] | 95 to 100 |

same assay, conditions: post-emergence, 336 h; ABUTH: velvetleaf (Abutilon theophrasti); 140 g ai/ha; post-emergent; 14 days after application; read-out: Visual Growth Reduction (%) 14 Days After Application ABUTH

| Compound | pest or weed control at 140 g/ha [%] |
| --- | --- |
| Nc1cc(-c2ccc(Br)c(F)c2)nc(C(=O)O)c1Cl [Compound 110, 4-Amino-6-(4-bromo-3-fluorophenyl)-3-chloropicolinic acid] | 95 to 100 |

same assay, conditions: post-emergence, 336 h; AMARE: redroot pigweed (Amaranthus retroflexus); 70 g ai/ha; post-emergent; 14 days after application; read-out: Visual Growth Reduction (%) 14 Days After Application AMARE

| Compound | pest or weed control at 70 g/ha [%] |
| --- | --- |
| Nc1cc(-c2ccc(Br)c(F)c2)nc(C(=O)O)c1Cl [Compound 110, 4-Amino-6-(4-bromo-3-fluorophenyl)-3-chloropicolinic acid] | 95 to 100 |

same assay, conditions: post-emergence, 336 h; AMARE: redroot pigweed (Amaranthus retroflexus); 140 g ai/ha; post-emergent; 14 days after application; read-out: Visual Growth Reduction (%) 14 Days After Application AMARE

| Compound | pest or weed control at 140 g/ha [%] |
| --- | --- |
| Nc1cc(-c2ccc(Br)c(F)c2)nc(C(=O)O)c1Cl [Compound 110, 4-Amino-6-(4-bromo-3-fluorophenyl)-3-chloropicolinic acid] | 95 to 100 |

same assay, conditions: post-emergence, 336 h; BRSNN: oilseed-rape, canola (Brassica napus); 70 g ai/ha; post-emergent; 14 days after application; read-out: Visual Growth Reduction (%) 14 Days After Application BRSNN

| Compound | pest or weed control at 70 g/ha [%] |
| --- | --- |
| Nc1cc(-c2ccc(Br)c(F)c2)nc(C(=O)O)c1Cl [Compound 110, 4-Amino-6-(4-bromo-3-fluorophenyl)-3-chloropicolinic acid] | 95 to 100 |

same assay, conditions: post-emergence, 336 h; BRSNN: oilseed-rape, canola (Brassica napus); 140 g ai/ha; post-emergent; 14 days after application; read-out: Visual Growth Reduction (%) 14 Days After Application BRSNN

| Compound | pest or weed control at 140 g/ha [%] |
| --- | --- |
| Nc1cc(-c2ccc(Br)c(F)c2)nc(C(=O)O)c1Cl [Compound 110, 4-Amino-6-(4-bromo-3-fluorophenyl)-3-chloropicolinic acid] | 95 to 100 |

same assay, conditions: post-emergence, 336 h; CHEAL: lambsquarters (Chenopodium album); 70 g ai/ha; post-emergent; 14 days after application; read-out: Visual Growth Reduction (%) 14 Days After Application CHEAL

| Compound | pest or weed control at 70 g/ha [%] |
| --- | --- |
| Nc1cc(-c2ccc(Br)c(F)c2)nc(C(=O)O)c1Cl [Compound 110, 4-Amino-6-(4-bromo-3-fluorophenyl)-3-chloropicolinic acid] | 95 to 100 |

same assay, conditions: post-emergence, 336 h; CHEAL: lambsquarters (Chenopodium album); 140 g ai/ha; post-emergent; 14 days after application; read-out: Visual Growth Reduction (%) 14 Days After Application CHEAL

| Compound | pest or weed control at 140 g/ha [%] |
| --- | --- |
| Nc1cc(-c2ccc(Br)c(F)c2)nc(C(=O)O)c1Cl [Compound 110, 4-Amino-6-(4-bromo-3-fluorophenyl)-3-chloropicolinic acid] | 95 to 100 |

same assay, conditions: post-emergence, 336 h; EPHHL: wild poinsettia (Euphorbia heterophylla); 70 g ai/ha; post-emergent; 14 days after application; read-out: Visual Growth Reduction (%) 14 Days After Application EPHHL

| Compound | pest or weed control at 70 g/ha [%] |
| --- | --- |
| Nc1cc(-c2ccc(Br)c(F)c2)nc(C(=O)O)c1Cl [Compound 110, 4-Amino-6-(4-bromo-3-fluorophenyl)-3-chloropicolinic acid] | 95 to 100 |

same assay, conditions: post-emergence, 336 h; EPHHL: wild poinsettia (Euphorbia heterophylla); 140 g ai/ha; post-emergent; 14 days after application; read-out: Visual Growth Reduction (%) 14 Days After Application EPHHL

| Compound | pest or weed control at 140 g/ha [%] |
| --- | --- |
| Nc1cc(-c2ccc(Br)c(F)c2)nc(C(=O)O)c1Cl [Compound 110, 4-Amino-6-(4-bromo-3-fluorophenyl)-3-chloropicolinic acid] | 95 to 100 |

same assay, conditions: post-emergence, 336 h; HELAN: sunflower (Helianthus annuus); 70 g ai/ha; post-emergent; 14 days after application; read-out: Visual Growth Reduction (%) 14 Days After Application HELAN

| Compound | pest or weed control at 70 g/ha [%] |
| --- | --- |
| Nc1cc(-c2ccc(Br)c(F)c2)nc(C(=O)O)c1Cl [Compound 110, 4-Amino-6-(4-bromo-3-fluorophenyl)-3-chloropicolinic acid] | 95 to 100 |

same assay, conditions: post-emergence, 336 h; HELAN: sunflower (Helianthus annuus); 140 g ai/ha; post-emergent; 14 days after application; read-out: Visual Growth Reduction (%) 14 Days After Application HELAN

| Compound | pest or weed control at 140 g/ha [%] |
| --- | --- |
| Nc1cc(-c2ccc(Br)c(F)c2)nc(C(=O)O)c1Cl [Compound 110, 4-Amino-6-(4-bromo-3-fluorophenyl)-3-chloropicolinic acid] | 95 to 100 |

same assay, conditions: post-emergence, 336 h; VIOTR: wild pansy (Viola tricolor); 70 g ai/ha; post-emergent; 14 days after application; read-out: Visual Growth Reduction (%) 14 Days After Application VIOTR

| Compound | pest or weed control at 70 g/ha [%] |
| --- | --- |
| Nc1cc(-c2ccc(Br)c(F)c2)nc(C(=O)O)c1Cl [Compound 110, 4-Amino-6-(4-bromo-3-fluorophenyl)-3-chloropicolinic acid] | 45 to 59 |

same assay, conditions: post-emergence, 336 h; VIOTR: wild pansy (Viola tricolor); 140 g ai/ha; post-emergent; 14 days after application; read-out: Visual Growth Reduction (%) 14 Days After Application VIOTR

| Compound | pest or weed control at 140 g/ha [%] |
| --- | --- |
| Nc1cc(-c2ccc(Br)c(F)c2)nc(C(=O)O)c1Cl [Compound 110, 4-Amino-6-(4-bromo-3-fluorophenyl)-3-chloropicolinic acid] | 45 to 59 |

system: Key Grass and Sedge Weeds as well as Grass Crops; assay: Post-emergent Test II herbicidal activity (Table 6); format: in vivo; details: Triticum aestivum, post-emergence, 336 h, TRZSS (wheat), application rate 70 g ai/ha, read-out: Visual Growth Reduction (%) 14 Days After Application, TRZSS
In short: as §1

| Compound | pest or weed control at 70 g/ha [%] |
| --- | --- |
| Nc1cc(-c2ccc(Br)c(F)c2)nc(C(=O)O)c1Cl [Compound 110, 4-Amino-6-(4-bromo-3-fluorophenyl)-3-chloropicolinic acid] | 45 to 59 |

same assay, conditions: Triticum aestivum, post-emergence, 336 h, TRZSS (wheat), application rate 140 g ai/ha, read-out: Visual Growth Reduction (%) 14 Days After Application, TRZSS

| Compound | pest or weed control at 140 g/ha [%] |
| --- | --- |
| Nc1cc(-c2ccc(Br)c(F)c2)nc(C(=O)O)c1Cl [Compound 110, 4-Amino-6-(4-bromo-3-fluorophenyl)-3-chloropicolinic acid] | 45 to 59 |

same assay, conditions: post-emergence, 336 h, CYPES: yellow nutsedge (Cyperus esculentus), application rate 70 g ai/ha, read-out: Visual Growth Reduction (%) 14 Days After Application, CYPES

| Compound | pest or weed control at 70 g/ha [%] |
| --- | --- |
| Nc1cc(-c2ccc(Br)c(F)c2)nc(C(=O)O)c1Cl [Compound 110, 4-Amino-6-(4-bromo-3-fluorophenyl)-3-chloropicolinic acid] | 45 to 59 |

same assay, conditions: post-emergence, 336 h, CYPES: yellow nutsedge (Cyperus esculentus), application rate 140 g ai/ha, read-out: Visual Growth Reduction (%) 14 Days After Application, CYPES

| Compound | pest or weed control at 140 g/ha [%] |
| --- | --- |
| Nc1cc(-c2ccc(Br)c(F)c2)nc(C(=O)O)c1Cl [Compound 110, 4-Amino-6-(4-bromo-3-fluorophenyl)-3-chloropicolinic acid] | 45 to 59 |

same assay, conditions: post-emergence, 336 h, DIGSA: crabgrass (Digitaria sanguinalis), application rate 70 g ai/ha, read-out: Visual Growth Reduction (%) 14 Days After Application, DIGSA

| Compound | pest or weed control at 70 g/ha [%] |
| --- | --- |
| Nc1cc(-c2ccc(Br)c(F)c2)nc(C(=O)O)c1Cl [Compound 110, 4-Amino-6-(4-bromo-3-fluorophenyl)-3-chloropicolinic acid] | 75 to 84 |

same assay, conditions: post-emergence, 336 h, DIGSA: crabgrass (Digitaria sanguinalis), application rate 140 g ai/ha, read-out: Visual Growth Reduction (%) 14 Days After Application, DIGSA

| Compound | pest or weed control at 140 g/ha [%] |
| --- | --- |
| Nc1cc(-c2ccc(Br)c(F)c2)nc(C(=O)O)c1Cl [Compound 110, 4-Amino-6-(4-bromo-3-fluorophenyl)-3-chloropicolinic acid] | 75 to 84 |

same assay, conditions: post-emergence, 336 h, ECHCG: barnyardgrass (Echinochloa crus-galli), application rate 70 g ai/ha, read-out: Visual Growth Reduction (%) 14 Days After Application, ECHCG

| Compound | pest or weed control at 70 g/ha [%] |
| --- | --- |
| Nc1cc(-c2ccc(Br)c(F)c2)nc(C(=O)O)c1Cl [Compound 110, 4-Amino-6-(4-bromo-3-fluorophenyl)-3-chloropicolinic acid] | 60 to 74 |

same assay, conditions: post-emergence, 336 h, ECHCG: barnyardgrass (Echinochloa crus-galli), application rate 140 g ai/ha, read-out: Visual Growth Reduction (%) 14 Days After Application, ECHCG

| Compound | pest or weed control at 140 g/ha [%] |
| --- | --- |
| Nc1cc(-c2ccc(Br)c(F)c2)nc(C(=O)O)c1Cl [Compound 110, 4-Amino-6-(4-bromo-3-fluorophenyl)-3-chloropicolinic acid] | 75 to 84 |

same assay, conditions: post-emergence, 336 h, ORYSA: rice (Oryza sativa), application rate 70 g ai/ha, read-out: Visual Growth Reduction (%) 14 Days After Application, ORYSA

| Compound | pest or weed control at 70 g/ha [%] |
| --- | --- |
| Nc1cc(-c2ccc(Br)c(F)c2)nc(C(=O)O)c1Cl [Compound 110, 4-Amino-6-(4-bromo-3-fluorophenyl)-3-chloropicolinic acid] | 0 to 29 |

same assay, conditions: post-emergence, 336 h, ORYSA: rice (Oryza sativa), application rate 140 g ai/ha, read-out: Visual Growth Reduction (%) 14 Days After Application, ORYSA

| Compound | pest or weed control at 140 g/ha [%] |
| --- | --- |
| Nc1cc(-c2ccc(Br)c(F)c2)nc(C(=O)O)c1Cl [Compound 110, 4-Amino-6-(4-bromo-3-fluorophenyl)-3-chloropicolinic acid] | 0 to 29 |

same assay, conditions: post-emergence, 336 h, SETFA: giant foxtail (Setaria faberi), application rate 70 g ai/ha, read-out: Visual Growth Reduction (%) 14 Days After Application, SETFA

| Compound | pest or weed control at 70 g/ha [%] |
| --- | --- |
| Nc1cc(-c2ccc(Br)c(F)c2)nc(C(=O)O)c1Cl [Compound 110, 4-Amino-6-(4-bromo-3-fluorophenyl)-3-chloropicolinic acid] | 60 to 74 |

same assay, conditions: post-emergence, 336 h, SETFA: giant foxtail (Setaria faberi), application rate 140 g ai/ha, read-out: Visual Growth Reduction (%) 14 Days After Application, SETFA

| Compound | pest or weed control at 140 g/ha [%] |
| --- | --- |
| Nc1cc(-c2ccc(Br)c(F)c2)nc(C(=O)O)c1Cl [Compound 110, 4-Amino-6-(4-bromo-3-fluorophenyl)-3-chloropicolinic acid] | 60 to 74 |

same assay, conditions: post-emergence, 336 h, SORVU: grain sorghum (Sorghum vulgare), application rate 70 g ai/ha, read-out: Visual Growth Reduction (%) 14 Days After Application, SORVU

| Compound | pest or weed control at 70 g/ha [%] |
| --- | --- |
| Nc1cc(-c2ccc(Br)c(F)c2)nc(C(=O)O)c1Cl [Compound 110, 4-Amino-6-(4-bromo-3-fluorophenyl)-3-chloropicolinic acid] | 85 to 94 |

same assay, conditions: post-emergence, 336 h, SORVU: grain sorghum (Sorghum vulgare), application rate 140 g ai/ha, read-out: Visual Growth Reduction (%) 14 Days After Application, SORVU

| Compound | pest or weed control at 140 g/ha [%] |
| --- | --- |
| Nc1cc(-c2ccc(Br)c(F)c2)nc(C(=O)O)c1Cl [Compound 110, 4-Amino-6-(4-bromo-3-fluorophenyl)-3-chloropicolinic acid] | 85 to 94 |

same assay, conditions: post-emergence, 336 h, ZEAMX: maize, corn (Zea mays), application rate 70 g ai/ha, read-out: Visual Growth Reduction (%) 14 Days After Application, ZEAMX

| Compound | pest or weed control at 70 g/ha [%] |
| --- | --- |
| Nc1cc(-c2ccc(Br)c(F)c2)nc(C(=O)O)c1Cl [Compound 110, 4-Amino-6-(4-bromo-3-fluorophenyl)-3-chloropicolinic acid] | 45 to 59 |

same assay, conditions: post-emergence, 336 h, ZEAMX: maize, corn (Zea mays), application rate 140 g ai/ha, read-out: Visual Growth Reduction (%) 14 Days After Application, ZEAMX

| Compound | pest or weed control at 140 g/ha [%] |
| --- | --- |
| Nc1cc(-c2ccc(Br)c(F)c2)nc(C(=O)O)c1Cl [Compound 110, 4-Amino-6-(4-bromo-3-fluorophenyl)-3-chloropicolinic acid] | 60 to 74 |
